Experimental data as given in PMC2999882 (Molecular pharmacology, 2008).
Read-outs that look alike come from different tables or passages of the source.

Assays:
5HT3 receptors [1] = biological target: T1, 5HT3 receptors (Homo sapiens, UniProt P46098); conditions: cited from earlier work
T1 sequence (P46098 24-478): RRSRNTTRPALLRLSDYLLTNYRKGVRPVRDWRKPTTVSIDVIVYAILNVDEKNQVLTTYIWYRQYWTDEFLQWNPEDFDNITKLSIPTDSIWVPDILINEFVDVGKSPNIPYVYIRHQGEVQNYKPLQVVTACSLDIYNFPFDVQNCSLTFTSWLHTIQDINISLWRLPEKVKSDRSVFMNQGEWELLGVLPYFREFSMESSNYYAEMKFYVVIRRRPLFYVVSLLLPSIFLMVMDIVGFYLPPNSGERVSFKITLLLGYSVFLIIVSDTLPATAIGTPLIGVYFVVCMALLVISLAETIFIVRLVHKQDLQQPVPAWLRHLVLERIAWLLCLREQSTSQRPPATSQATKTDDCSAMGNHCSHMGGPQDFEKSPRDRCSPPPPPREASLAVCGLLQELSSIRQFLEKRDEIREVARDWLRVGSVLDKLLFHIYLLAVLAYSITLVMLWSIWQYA

5HT3 receptors [2] = biological target: T1, 5HT3 receptors; assay type: cell-based
5HT3 receptors [3] = biological target: T1, 5HT3 receptors; assay type: cell-based; remark: listed apart in the source
α7 nAChR = α7 nAChR (Homo sapiens, UniProt P36544)
α7 nAChR, sequence (P36544 23-502): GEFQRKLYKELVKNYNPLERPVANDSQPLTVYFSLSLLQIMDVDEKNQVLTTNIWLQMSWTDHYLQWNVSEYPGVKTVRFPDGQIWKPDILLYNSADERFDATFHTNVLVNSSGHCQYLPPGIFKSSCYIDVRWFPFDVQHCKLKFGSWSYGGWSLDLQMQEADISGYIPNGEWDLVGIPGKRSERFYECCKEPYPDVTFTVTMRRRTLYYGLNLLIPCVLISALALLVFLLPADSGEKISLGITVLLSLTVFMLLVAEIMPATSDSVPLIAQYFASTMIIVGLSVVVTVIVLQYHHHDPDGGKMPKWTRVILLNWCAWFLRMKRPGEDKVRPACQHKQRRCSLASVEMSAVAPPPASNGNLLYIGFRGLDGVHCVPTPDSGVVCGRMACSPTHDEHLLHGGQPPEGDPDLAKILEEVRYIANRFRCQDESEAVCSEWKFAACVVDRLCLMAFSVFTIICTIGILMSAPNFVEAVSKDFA

[4] = biological target: T2, muscle type (α1β1εδ) nAChR (Homo sapiens, UniProt P02708+Q04844+Q07001); assay type: cell-based
T2 sequence (P02708 21-457): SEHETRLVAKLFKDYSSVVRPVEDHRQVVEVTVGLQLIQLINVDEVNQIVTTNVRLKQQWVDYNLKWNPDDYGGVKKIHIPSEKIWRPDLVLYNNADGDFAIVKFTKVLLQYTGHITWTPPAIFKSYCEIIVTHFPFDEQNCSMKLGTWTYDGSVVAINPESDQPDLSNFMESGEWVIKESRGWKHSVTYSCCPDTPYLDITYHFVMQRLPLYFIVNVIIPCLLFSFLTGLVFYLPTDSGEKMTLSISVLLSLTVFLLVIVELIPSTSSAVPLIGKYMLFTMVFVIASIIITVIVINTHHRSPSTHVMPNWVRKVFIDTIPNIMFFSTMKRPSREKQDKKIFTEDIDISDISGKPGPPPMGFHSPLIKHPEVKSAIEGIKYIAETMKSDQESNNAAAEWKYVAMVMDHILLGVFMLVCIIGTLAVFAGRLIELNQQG
T2 sequence (P11230 24-501 partner): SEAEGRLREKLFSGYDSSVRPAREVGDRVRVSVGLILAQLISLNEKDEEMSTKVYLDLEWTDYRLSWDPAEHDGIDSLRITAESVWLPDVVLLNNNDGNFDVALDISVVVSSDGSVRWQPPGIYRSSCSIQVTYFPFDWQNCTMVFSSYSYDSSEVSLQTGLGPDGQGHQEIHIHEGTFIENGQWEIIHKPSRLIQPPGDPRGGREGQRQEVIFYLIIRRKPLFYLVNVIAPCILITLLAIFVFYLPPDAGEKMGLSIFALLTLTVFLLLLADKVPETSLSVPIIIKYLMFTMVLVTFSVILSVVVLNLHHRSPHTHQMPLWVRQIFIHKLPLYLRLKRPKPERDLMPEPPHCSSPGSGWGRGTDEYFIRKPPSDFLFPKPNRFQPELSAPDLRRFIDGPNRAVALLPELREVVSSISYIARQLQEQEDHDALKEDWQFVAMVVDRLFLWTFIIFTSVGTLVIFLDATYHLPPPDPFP
T2 sequence (Q04844 21-493): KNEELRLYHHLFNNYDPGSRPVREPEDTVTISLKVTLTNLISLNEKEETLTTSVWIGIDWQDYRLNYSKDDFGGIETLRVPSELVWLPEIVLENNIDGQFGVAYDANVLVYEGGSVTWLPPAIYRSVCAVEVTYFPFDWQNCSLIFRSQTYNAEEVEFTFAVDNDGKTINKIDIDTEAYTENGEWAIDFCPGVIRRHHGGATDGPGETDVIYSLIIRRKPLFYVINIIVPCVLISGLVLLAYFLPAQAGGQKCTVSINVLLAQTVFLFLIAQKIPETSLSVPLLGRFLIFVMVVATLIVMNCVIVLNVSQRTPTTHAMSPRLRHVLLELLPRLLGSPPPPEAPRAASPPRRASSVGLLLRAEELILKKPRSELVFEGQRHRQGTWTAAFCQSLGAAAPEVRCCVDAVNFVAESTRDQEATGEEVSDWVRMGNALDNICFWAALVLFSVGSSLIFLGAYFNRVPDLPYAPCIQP
T2 sequence (Q07001 22-517): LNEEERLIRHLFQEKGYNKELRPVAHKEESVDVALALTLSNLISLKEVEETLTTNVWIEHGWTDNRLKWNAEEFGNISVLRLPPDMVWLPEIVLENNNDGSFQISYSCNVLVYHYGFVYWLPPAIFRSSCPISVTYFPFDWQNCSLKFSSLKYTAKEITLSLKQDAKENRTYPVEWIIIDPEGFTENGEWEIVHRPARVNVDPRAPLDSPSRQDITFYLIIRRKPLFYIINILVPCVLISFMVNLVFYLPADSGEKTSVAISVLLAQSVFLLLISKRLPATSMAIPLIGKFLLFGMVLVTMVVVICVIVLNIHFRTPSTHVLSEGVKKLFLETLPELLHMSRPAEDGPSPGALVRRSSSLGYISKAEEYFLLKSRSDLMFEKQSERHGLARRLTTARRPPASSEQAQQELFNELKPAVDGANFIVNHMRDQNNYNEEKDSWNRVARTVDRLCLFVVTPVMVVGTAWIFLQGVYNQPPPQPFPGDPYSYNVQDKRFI

α4β2 nAChR [5] = biological target: T3, α4β2 nAChR (Homo sapiens, UniProt P17787+P43681); experiment: cell-based; assay type: cell-based
T3 sequence (P43681 29-627 limits assumed): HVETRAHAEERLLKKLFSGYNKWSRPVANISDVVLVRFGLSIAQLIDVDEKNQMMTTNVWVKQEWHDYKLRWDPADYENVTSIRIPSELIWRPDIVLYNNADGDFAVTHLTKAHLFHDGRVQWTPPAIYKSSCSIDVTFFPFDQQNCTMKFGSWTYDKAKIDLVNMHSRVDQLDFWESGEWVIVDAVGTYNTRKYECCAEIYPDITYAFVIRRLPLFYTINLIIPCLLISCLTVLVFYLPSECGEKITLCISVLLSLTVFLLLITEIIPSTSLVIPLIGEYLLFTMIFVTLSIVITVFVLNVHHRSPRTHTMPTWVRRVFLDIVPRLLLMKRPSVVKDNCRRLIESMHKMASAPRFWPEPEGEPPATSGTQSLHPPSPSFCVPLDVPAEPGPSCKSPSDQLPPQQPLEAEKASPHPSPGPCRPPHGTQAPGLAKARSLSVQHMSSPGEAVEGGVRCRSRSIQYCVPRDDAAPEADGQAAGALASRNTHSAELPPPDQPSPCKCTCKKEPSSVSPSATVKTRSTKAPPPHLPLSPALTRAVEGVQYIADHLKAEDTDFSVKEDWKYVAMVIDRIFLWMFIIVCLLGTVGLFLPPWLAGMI
T3 sequence (P17787 26-502): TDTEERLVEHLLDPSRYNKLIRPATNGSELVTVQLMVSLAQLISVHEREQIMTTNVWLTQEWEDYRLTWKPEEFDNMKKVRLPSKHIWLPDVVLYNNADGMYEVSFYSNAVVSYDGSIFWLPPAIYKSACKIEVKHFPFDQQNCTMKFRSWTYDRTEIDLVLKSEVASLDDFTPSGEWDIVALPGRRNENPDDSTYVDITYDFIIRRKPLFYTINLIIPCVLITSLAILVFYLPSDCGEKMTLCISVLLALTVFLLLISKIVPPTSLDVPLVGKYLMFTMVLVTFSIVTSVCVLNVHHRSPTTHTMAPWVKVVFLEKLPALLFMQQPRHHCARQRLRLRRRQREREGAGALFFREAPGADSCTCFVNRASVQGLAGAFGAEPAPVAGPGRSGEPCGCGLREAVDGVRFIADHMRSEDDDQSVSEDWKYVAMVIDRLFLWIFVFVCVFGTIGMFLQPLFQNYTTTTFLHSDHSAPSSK

[6] = biological target: T2, muscle type (α1β1εδ) nAChR; assay type: cell-based; remark: listed apart in the source
α4β2 nAChR [7] = biological target: T3, α4β2 nAChR; assay type: cell-based
α3β4 nAChR = α3β4 nAChR (Homo sapiens, UniProt P30926+P32297)
α3β4 nAChR, sequence (P32297 32-505): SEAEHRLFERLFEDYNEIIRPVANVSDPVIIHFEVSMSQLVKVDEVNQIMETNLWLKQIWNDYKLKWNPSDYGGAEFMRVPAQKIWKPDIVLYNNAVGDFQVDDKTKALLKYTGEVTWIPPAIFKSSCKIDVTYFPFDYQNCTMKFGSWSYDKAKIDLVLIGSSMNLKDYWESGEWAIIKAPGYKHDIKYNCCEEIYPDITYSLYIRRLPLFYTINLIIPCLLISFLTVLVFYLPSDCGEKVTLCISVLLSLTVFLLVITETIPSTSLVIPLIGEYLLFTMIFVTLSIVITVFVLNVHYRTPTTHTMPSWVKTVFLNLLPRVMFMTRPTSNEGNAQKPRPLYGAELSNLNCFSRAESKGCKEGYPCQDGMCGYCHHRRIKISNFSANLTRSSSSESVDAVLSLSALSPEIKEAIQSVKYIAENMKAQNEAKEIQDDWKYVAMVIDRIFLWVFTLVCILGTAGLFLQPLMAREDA
α3β4 nAChR, sequence (P30926 22-498): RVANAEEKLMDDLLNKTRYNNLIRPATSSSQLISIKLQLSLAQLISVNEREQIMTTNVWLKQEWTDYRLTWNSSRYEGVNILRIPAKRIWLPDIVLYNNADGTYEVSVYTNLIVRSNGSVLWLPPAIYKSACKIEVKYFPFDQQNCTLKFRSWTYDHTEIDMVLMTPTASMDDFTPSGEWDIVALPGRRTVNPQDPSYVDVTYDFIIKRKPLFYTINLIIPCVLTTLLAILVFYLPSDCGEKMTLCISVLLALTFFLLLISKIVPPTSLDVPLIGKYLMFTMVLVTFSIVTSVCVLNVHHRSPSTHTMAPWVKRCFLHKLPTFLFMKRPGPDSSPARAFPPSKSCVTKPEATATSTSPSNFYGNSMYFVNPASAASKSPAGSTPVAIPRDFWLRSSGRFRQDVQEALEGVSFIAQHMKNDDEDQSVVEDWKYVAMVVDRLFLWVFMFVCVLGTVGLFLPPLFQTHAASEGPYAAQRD

Row | Compound | 5HT3 Activity (5HT3 receptors [2]) | 5HT3 Inhibition (5HT3 receptors [3]) | α7 Imax (α7 nAChR) | α1β1εδ Activity [4] | α4β2 Activity (α4β2 nAChR [5]) | α1β1εδ Inhibition [6] | α4β2 Inhibition (α4β2 nAChR [7]) | α3β4 Imax (α3β4 nAChR) | further results
1 | CN1[C@@H]2CCC[C@H]1CC2 [Tropane] |  |  |  |  |  |  |  |  | Effects on 5HT3 Receptors (5HT3 receptors [1]): Neither agonist nor antagonist activity detected
2 | COc1ccc(/C=C2\CN3CCC2CC3)cc1.Cl [MeOBQNZ, (Z)-3-(4-methoxybenzylidene)-1-azoniabicyclo[2.2.2]octane chloride] | N | 80 ± 16% | 0.09 ± 0.01 | ≤1% | N | 76 ± 6% | 56 ± 4% | <0.01 | EC50 (α7 nAChR): 1.1 ± 0.8 µM
3 | C[N+]1(C)CCCC(O)C1 (centres unmarked) [N,N-dimethyl-3-piperidinol] |  |  |  |  |  |  |  |  | agonist activity on α7 (α7 nAChR): inactive
4 | quinuclidinone [QN-O] | N | N.S. | 0.73 ± 0.04 | N | N | N.S. | N.S. | ≥0.07± | selectivity classification (α7 nAChR): α7-selective agonists; α7 potency, fold lower than related agonists that lack the oxygen group (e.g., ETMA and QN) (α7 nAChR): at least 10 fold; EC50 (α7 nAChR; read-out: α7 EC50): 78 ± 11 µM; EC50 (α3β4 nAChR; read-out: α3β4 EC50): > 1000 µM
5 | C(=C1\CN2CCC1CC2)/c1ccccc1.Cl [BQNE, E-3-benzylidene-1-azoniabicyclo[2.2.2]-octane chloride] | N | 94 ± 5% | 0.28 ± 0.01 | N | N | 70 ± 7% | 77 ± 2% | <0.01 | selectivity classification (α7 nAChR): α7-selective
6 | C[N+]1(C)CCCCC1 [Dimethyl piperidinium] |  |  |  |  |  |  |  |  | Effects on 5HT3 Receptors (5HT3 receptors [1]): Antagonist activity reported
7 | CC[N+](C)(C)CC [dEdMA, diethyldimethylammonium] | N | N.S. | 0.95 ± 0.06 | N | N | N.S. | 52 ± 5% | 0.06 ± 0.01 | selectivity classification (α7 nAChR): α7-selective agonists; EC50 (α7 nAChR; read-out: α7 EC50): 197 ± 37 µM; α3β4 efficacy, fold difference (versus ETMA) (α3β4 nAChR): greater than 10 fold
8 | O=C(N[C@@H]1C[C@H]2CCN(C2)C1)c1cc2ccoc2cn1 [PHA-709829, N-[(3R,5R)-1-azabicyclo[3.2.1]oct-3-yl]furo[2,3-c]pyridine-5-carboxamide] |  |  |  |  |  |  |  |  | 5HT3 receptors, inhibitory activity at (5HT3 receptors [1]; ref Acker et al., 2008): Inhibitory activity at ≈ 300 nM
9 | CC(=O)OCC[N+](C)(C)C [ACh, acetylcholine, reference compound] |  |  | 1.0 |  |  |  |  |  | α3β4 Imax (α3β4 nAChR; peak current, relative to ACh maximum (ACh constrained to 1)): 1.0
10 | OCCN1CCCCC1 [1-(2-hydroxyethyl)piperidine] |  |  |  |  |  |  |  |  | agonist activity on α7 (α7 nAChR; 300 µM, data not shown): inactive
11 | CC[N+](C)(C)C [ETMA, reference compound] | N | N.S. | 1.0 ± 0.1 | N | ≤2% | N.S. | 40 ± 9% | 0.78 ± 0.04 | EC50 (α7 nAChR; read-out: α7 EC50): 19 ± 2 µM; agonist character at α3β4 (α3β4 nAChR): partial agonists; EC50 (α3β4 nAChR; read-out: α3β4 EC50): 660 ± 90 µM
12 | C[N+]12CCC(CC1)CC2.[I-] [MQN, 1-methyl-1-azoniabicyclo[2.2.2]octane iodide] | N | N.S. | 1.0 ± 0.1 | N | N | N.S. | 72 ± 4% | 0.025 ± 0.006 | agonist character at α7 (α7 nAChR): fully effective; agonist character at α3β4 (α3β4 nAChR): essentially all activity was lost
13 | CN1[C@@H]2CC[C@H]1C[C@@H](OC(=O)c1c[nH]c3ccccc13)C2 [Tropisetron] |  |  |  |  |  |  |  |  | Effects on 5HT3 Receptors (5HT3 receptors [1]; ref Macor et al., 2001, Papke et al., 2005a): Competitive antagonist
14 | C1CN2CCC1CC2 [QN, quinuclidine] | N | N.S. | 1.03 ± 0.02 | 3% | ≈2% | N.S. | 74 ± 5% | 0.64 ± 0.01 | EC50 (α7 nAChR): 7.2 ± 0.5 µM; agonist character at α7 (α7 nAChR): potent and fully efficacious agonist; selectivity classification (α7 nAChR): non-α7-selective; α7 activation at 300 µM (α7 nAChR): maximal activation; activation of muscle-type nAChRs [4]: detectable activation; Emax (α4β2 nAChR [5]; read-out: α4β2 response, % of the ACh maximal responses): 3.2 ± 0.7%; EC50 (α3β4 nAChR): 180 ± 10 µM; agonist character at α3β4 (α3β4 nAChR): partial agonist; α3β4 efficacy, % that of ACh (α3β4 nAChR): 64%; α3β4 response, % of the ACh maximum (α3β4 nAChR): 46 ± 2%
15 | CC[N+]12CCC(CC1)CC2.[I-] [EQN, 1-ethyl-1-azoniabicyclo[2.2.2]octane iodide] |  |  |  |  |  |  |  |  | agonist character at α7 (α7 nAChR): weak partial agonist; mecamylamine-sensitive current, % of the total current (α7 nAChR): 58 ± 3%; agonist character at α3β4 (α3β4 nAChR): comparable with the current evoked in uninjected oocytes
16 | C[N+](C)(C)C [TMA, tetramethyl-ammonium, reference compound] | N | N.S. | 1.1 ± 0.1 | <2% | 19 ± 6% | N.S. | N.S. | 0.55 ± 0.03 | selectivity classification (α7 nAChR): non-α7-selective; EC50 (α7 nAChR; read-out: α7 EC50): 30 ± 3 µM; activation of muscle-type nAChRs [4]: detectable activation; agonist character at α3β4 (α3β4 nAChR): partial agonists; EC50 (α3β4 nAChR; read-out: α3β4 EC50): 350 ± 190 µM
17 | CN1[C@@H]2CC[C@H]1CC(=O)C2 [Tropinone] |  |  |  |  |  |  |  |  | Effects on 5HT3 Receptors (5HT3 receptors [1]): Neither agonist nor antagonist activity detected
18 | C(=C1/CN2CCC1CC2)/c1ccccc1.Cl [BQNZ, (Z)-3-benzylidene-1-azoniabicyclo[2.2.2]octane chloride] | N | 95 ± 4% | 0.11 ± 0.01 | ≈7% | ≈1% | N.S. | 74 ± 6% | 0.10 ± 0.01 | EC50 (α7 nAChR): 7.3 ± 0.7 µM; agonist character at α3β4 (α3β4 nAChR): significant activation
19 | OCCN1CCCC1 [1-(2-hydroxyethyl)pyrrolidine] |  |  |  |  |  |  |  |  | agonist activity on α7 (α7 nAChR): inactive
20 | COc1ccc(/C=C2/CN3CCC2CC3)cc1.Cl [MeOBQNE, (E)-3-(4-methoxybenzylidene)-1-azoniabicyclo[2.2.2]-octane chloride] | N | 94 ± 5% | 0.41 ± 0.03 | N | N | 90 ± 2% | 81 ± 2% | <0.01 | 
21 | O=C1NCC2(CN3CCC2CC3)O1 (single isomer, unassigned; (-)) [AR-R17779, (−)-Spiro[1-azabicyclo[2.2.2]octane-3,5′-oxazolidin-2′-one]] |  |  |  |  |  |  |  |  | Effects on 5HT3 Receptors (5HT3 receptors [1]): None
